Experimental data: the NIST ThermoML archive (doi:10.1021/acs.jced.6b00142)
Values joined by “and” are separate entries in the source; they are usually repeats but may differ in a detail not shown here. Equal entries are not always repeated. ± gives the expanded uncertainty stated by the source.

Settings: Liquid, Diaphragm manometer

## Cl[SiH2]Cl [dichlorosilane]
299.99 K
  vapor or sublimation pressure: 214.5 ± 4.4 kPa [middle of 4 runs]
300 K
  vapor or sublimation pressure: 216.5 ± 4.4 kPa and 212.1 ± 4.3 kPa and 214.2 ± 4.3 kPa
309.99 K
  vapor or sublimation pressure: 284.3 ± 5.8 kPa
319.98 K
  vapor or sublimation pressure: 377.6 ± 7.7 kPa
319.99 K
  vapor or sublimation pressure: 377.9 ± 7.7 kPa
320 K
  vapor or sublimation pressure: 380.4 ± 7.7 kPa and 381.43 ± 7.8 kPa and 377.3 ± 7.7 kPa
323.01 K
  vapor or sublimation pressure: 407.8 ± 8.3 kPa
329.99 K
  vapor or sublimation pressure: 485.8 ± 9.9 kPa
330.02 K
  vapor or sublimation pressure: 492.2 ± 10 kPa
339.99 K
  vapor or sublimation pressure: 626.4 ± 13 kPa [middle of 4 runs]
340 K
  vapor or sublimation pressure: 628.6 ± 13 kPa
343.01 K
  vapor or sublimation pressure: 672.6 ± 14 kPa
349.99 K
  vapor or sublimation pressure: 784.7 ± 16 kPa and 786.4 ± 16 kPa and 789 ± 16 kPa
350 K
  vapor or sublimation pressure: 785 ± 16 kPa
359.98 K
  vapor or sublimation pressure: 981.9 ± 20 kPa
359.99 K
  vapor or sublimation pressure: 985.9 ± 20 kPa [middle of 4 runs]
362.99 K
  vapor or sublimation pressure: 1052.1 ± 21 kPa
369.98 K
  vapor or sublimation pressure: 1205 ± 24 kPa
369.99 K
  vapor or sublimation pressure: 1205 ± 24 kPa and 1209 ± 25 kPa
379.99 K
  vapor or sublimation pressure: 1477 ± 30 kPa [middle of 5 runs]
389.99 K
  vapor or sublimation pressure: 1779 ± 36 kPa and 1784 ± 36 kPa and 1780.5 ± 36 kPa
399.99 K
  vapor or sublimation pressure: 2099 ± 43 kPa and 2138 ± 43 kPa
409.98 K
  vapor or sublimation pressure: 2559 ± 52 kPa
410 K
  vapor or sublimation pressure: 2534 ± 51 kPa
419.99 K
  vapor or sublimation pressure: 3016 ± 61 kPa

## Cl[Si](Cl)(Cl)Cl [silicon tetrachloride]
332.99 K
  vapor or sublimation pressure: 113.02 ± 2.3 kPa
340 K
  vapor or sublimation pressure: 139.15 ± 2.8 kPa and 138.98 ± 2.8 kPa
350.01 K
  vapor or sublimation pressure: 185.05 ± 3.8 kPa
360 K
  vapor or sublimation pressure: 241.64 ± 4.9 kPa
370 K
  vapor or sublimation pressure: 311.49 ± 6.3 kPa
380 K
  vapor or sublimation pressure: 395.69 ± 8 kPa
390 K
  vapor or sublimation pressure: 495.9 ± 10 kPa
400 K
  vapor or sublimation pressure: 614 ± 12 kPa

## Cl[SiH](Cl)Cl [trichlorosilane]
310 K
  vapor or sublimation pressure: 121.89 ± 2.5 kPa
320 K
  vapor or sublimation pressure: 167.53 ± 3.4 kPa
330 K
  vapor or sublimation pressure: 225.35 ± 4.6 kPa
340 K
  vapor or sublimation pressure: 297.4 ± 6 kPa
350 K
  vapor or sublimation pressure: 385.6 ± 7.8 kPa
360 K
  vapor or sublimation pressure: 492.1 ± 10 kPa
370 K
  vapor or sublimation pressure: 619.6 ± 13 kPa
380 K
  vapor or sublimation pressure: 770.2 ± 16 kPa
380.5 K
  vapor or sublimation pressure: 778.2 ± 16 kPa
385 K
  vapor or sublimation pressure: 854.6 ± 17 kPa
390 K
  vapor or sublimation pressure: 946 ± 19 kPa
395 K
  vapor or sublimation pressure: 1044.2 ± 21 kPa
